# Measurements reported in patent US10820591B2, “Substituted sulfonyl amides for controlling animal pests” (Bayer Aktiengesellschaft, priority 2016, dated 2020).
# What was measured:
# Format in all cases: in vivo
# [1] = tested on: Boophilus microplus; assay: Boophilus microplus injection test; conditions: 20 μg/animal, after 7 days
# Description: Boophilus microplus—Injection Test Solvent: dimethyl sulfoxide To produce a suitable active compound preparation, 10 mg of active compound are mixed with 0.5 ml of solvent and the concentrate is diluted to the desired concentration with solvent. 1 μl of the active compound solution is injected into the abdomen of 5 engorged adult female cattle ticks (Boophilus microplus). The animals are transferred into dishes and kept in a climate-controlled room. Efficacy is assessed after 7 days by laying of fertile eggs. Eggs which are not visibly fertile are stored in a climate-controlled cabinet until the larvae hatch after about 42 days. An efficacy of 100% means that none of the ticks has laid any fertile eggs; 0% means that all the eggs are fertile.
# [2] = tested on: Ctenocephalides felis; assay: Ctenocephalides felis oral test; conditions: 100 ppm, after 2 days
# Description: Ctenocephalides felis—Oral Test Solvent: dimethyl sulfoxide To produce a suitable active compound preparation, 10 mg of active compound are mixed with 0.5 ml of dimethyl sulfoxide. Dilution with citrated cattle blood gives the desired concentration. About 20 unfed adult cat fleas (Ctenocephalides felis) are placed into a chamber which is closed at the top and bottom with gauze. A metal cylinder whose bottom end is closed with parafilm is placed onto the chamber. The cylinder contains the blood/active compound preparation, which can be imbibed by the fleas through the parafilm membrane. After 2 days, the kill in % is determined. 100% means that all of the fleas have been killed; 0% means that none of the fleas have been killed.
# [3] = tested on: Meloidogyne incognita; assay: Meloidogyne incognita test (sand, lettuce, gall formation); conditions: Meloidogyne incognita, 336 h, 20 ppm, after 14 days; read-out: nematicidal efficacy (formation of galls)
# How it was run: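 Vessels held sand, diluted compound solution, M. incognita egg/larvae suspension and lettuce seeds, and the plants grew for 14 days. Efficacy in % came from root gall formation: 100% means no galls, 0% means galls equal to the untreated control.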
# [4] = tested on: Nezara viridula; assay: Nezara viridula spray test; conditions: 500 g/ha, barley plants, after 4 days
# Description: Nezara viridula—Spray Test [table] To produce a suitable active compound preparation, 1 part by weight of active compound is dissolved with the specified parts by weight of solvent and made up to the desired concentration with water containing an emulsifier concentration of 1000 ppm. To produce further test concentrations, the formulation is diluted with emulsifier-containing water. Barley plants (Hordeum vulgare) infected with larvae of the Southern green shield bug (Nezara viridula) are sprayed with an active compound preparation of the desired concentration. After 4 days, the efficacy in % is determined. 100% means that all of the shield bugs have been killed; 0% means that none of the shield bugs have been killed.
# [5] = tested on: Nilaparvata lugens; assay: Nilaparvata lugens test; conditions: 500 g/ha, spray, rice plants, after 4 days
# Description: Nilaparvata lugens Test [table] To produce a suitable active compound preparation, 1 part by weight of active compound is dissolved with the specified parts by weight of solvent and made up to the desired concentration with water containing an emulsifier concentration of 1000 ppm. To produce further test concentrations, the formulation is diluted with emulsifier-containing water. Rice plants (Oryza sativa) are sprayed with the active compound preparation of the desired concentration and then infected with larvae of the brown planthopper (Nilaparvata lugens). After 4 days, the efficacy in % is determined. 100% means that all of the planthoppers have been killed; 0% means that none of the planthoppers have been killed.
# [6] = tested on: Phaedon cochleariae; assay: Phaedon cochleariae spray test; conditions: 500 g/ha, Chinese cabbage leaf discs, after 7 days
# Description: Phaedon cochleariae—Spray Test
# (§1) To produce a suitable active compound preparation, 1 part by weight of active compound is dissolved with the specified parts by weight of solvent and made up to the desired concentration with water containing an emulsifier concentration of 1000 ppm. To produce further test concentrations, the formulation is diluted with emulsifier-containing water.
# After 7 days, the efficacy in % is determined. 100% means that all the beetle larvae have been killed; 0% means that no beetle larvae have been killed.
# [7] = tested on: Tetranychus urticae; assay: Tetranychus urticae spray test, OP-resistant; conditions: foliar, 144 h, bean leaf discs, after 6 days, read-out: efficacy
# Description: Tetranychus urticae—Spray Test, OP-Resistant
# as §1
# Discs of bean leaves (Phaseolus vulgaris) infested with all stages of the greenhouse red spider mite (Tetranychus urticae) are sprayed with an active compound preparation of the desired concentration.
# After 6 days, the efficacy in % is determined. 100% means that all the spider mites have been killed; 0% means that no spider mites have been killed.
# [8] = tested on: Diabrotica balteata; assay: Diabrotica balteata spray test; conditions: 160 μg/well, after 7 days
# Description: Diabrotica balteata—Spray Test [table] To produce a suitable active compound preparation, 1 part by weight of active compound is dissolved with the specified parts by weight of solvent and made up to the desired concentration with water containing an emulsifier concentration of 1000 ppm. To produce further test concentrations, the formulation is diluted with emulsifier-containing water. Pre-swollen wheat grains (Triticum aestivum) are incubated in a multiwell plate filled with agar and a little water for one day (5 seed grains per cavity). The germinated wheat grains are sprayed with an active compound preparation of the desired concentration. Subsequently, each cavity is infected with 10-20 beetle larvae of Diabrotica balteata. After 7 days, the efficacy in % is determined. 100% means that all maize plants have grown as in the untreated, uninfected control; 0% means that no maize plant has grown.
# [9] = tested on: Myzus persicae; assay: Myzus persicae oral test; conditions: 120 h, 20 ppm, after 5 days, read-out: efficacy
# Description: (§2) Myzus persicae—Oral Test [table] To produce a suitable active compound preparation, 1 part by weight of active compound is dissolved with the stated parts by weight of solvent and made up to the desired concentration with water. 50 μl of the active compound preparation are transferred into microtitre plates and made up to a final volume of 200 μl with 150 μl of IPL41 insect medium (33%+15% sugar). Subsequently, the plates are sealed with parafilm, which a mixed population of green peach aphids (Myzus persicae) within a second microtitre plate is able to puncture and imbibe the solution through it. After 5 days, the efficacy in % is determined. 100% means that all the aphids have been killed; 0% means that no aphids have been killed.
# [10] = tested on: Myzus persicae; assay: Myzus persicae spray test (Chinese cabbage leaf discs); conditions: foliar, 144 h, 500 g/ha, after 6 days, read-out: efficacy
# [11] = tested on: Myzus persicae; assay: Myzus persicae spray test (bell pepper plants); conditions: 100 ppm, after 6 days
# Description: Myzus persicae—Spray Test [table] To produce a suitable active compound preparation, 1 part by weight of active compound is dissolved with the specified parts by weight of solvent and made up to the desired concentration with water containing an emulsifier concentration of 1000 ppm. To produce further test concentrations, the formulation is diluted with emulsifier-containing water. If the addition of ammonium salts or/and penetrants is required, these are each added in a concentration of 1000 ppm to the formulation solution. Bell pepper plants (Capsicum annuum) severely infested with the green peach aphid (Myzus persicae) are treated by spraying with the active compound preparation in the desired concentration. After 6 days, the kill in % is determined. 100% means that all of the aphids have been killed; 0% means that none of the aphids have been killed.
# [12] = tested on: Aphis gossypii; assay: Aphis gossypii oral test; conditions: 100 ppm, after 5 days
# Description: as §2, with “Aphis gossypii—Oral” for “Myzus persicae—Oral”, “the cotton aphid (Aphis gossypii)” for “green peach aphids (Myzus persicae)”
# [13] = tested on: Lucilia cuprina; assay: Lucilia cuprina test; conditions: 100 ppm, L1 larvae, after 2 days
# Description: Lucilia cuprina Test Solvent: dimethyl sulfoxide To produce a suitable active compound preparation, 10 mg of active compound are mixed with 0.5 ml of dimethyl sulfoxide, and the concentrate is diluted with water to the desired concentration. About 20 L1 larvae of the Australian sheep blowfly (Lucilia cuprina) are transferred into a test vessel containing minced horsemeat and the active compound preparation of the desired concentration. After 2 days, the kill in % is determined. 100% means that all the larvae have been killed; 0% means that no larvae have been killed.
Compound,efficacy (laying of fertile eggs) [1] [%],pest or weed control at 20 ppm [3] [%],efficacy [4] [%],efficacy [5] [%],efficacy [6] [%],pest or weed control at 20 ppm [9] [%],efficacy (kill in %) [11] [%],also measured
COc1cccc(S(=O)(=O)NC(=O)c2ncn(CCC(F)(F)F)c2Cl)c1 [I-032],90,90,100,100,83,,,efficacy (kill in %) [2]: 70%; pest or weed control at 500 g/ha [7]: 90%
COc1ccc(Cl)c(S(=O)(=O)NC(=O)c2nc(Cl)n(CCC(F)(F)F)c2Cl)c1 [I-118],,100,,,,,,efficacy [8]: 100%
CCSc1cccc(Cl)c1S(=O)(=O)NC(=O)c1cn(-c2cc(F)cc(F)c2)c(C)n1 [I-387],,100,,,,100,99,pest or weed control at 500 g/ha [10]: 70%
CS(=O)(=O)NC(=O)c1cn(Cc2ccc(C(F)(F)F)c(Cl)c2)cn1 [I-412],,100,,,,,,efficacy [12]: 90%
Cc1cccc(S(=O)(=O)NC(=O)c2ncn(CCC(F)(F)F)c2Cl)c1 [I-035],100,90,100,100,100,,,efficacy (kill in %) [13]: 100%
Cc1nc(C(=O)NS(=O)(=O)c2ccccc2Cl)cn1-c1cc(Cl)cc(Cl)c1 [I-316],,100,,,,100,95,
